Assay results: US20250381168A1, “VLA4 INHIBITORS AND USES THEREOF” (Washington University, priority 2022, published 2025)
pIC50: −log10 of the molar value. Entries after “also recorded” stand apart in the source; their conditions may differ. Where two headings read alike, the source gives them in different places. One block for each molecule: values may come before it.

Tests used:
integrin a4b7 = integrin a4b7 (Homo sapiens (Human), UniProt P13612+P26010); assay: a4b7 solid phase receptor assay (SPRA); conditions: recombinant human a4b7 binding to plate-coated human VCAM1 (TABLE 4)
Protocol: Wells were washed 3 times with TBS+ and blocking buffer (TBS+ with 1% bovine serum albumin), the plate was incubated for 1 hr at 37° C., and then washed 3× with TBS+ buffer. Recombinant human a4b7 (R & D Systems) was diluted to 1 μg/ml in TBS+/0.1% bovine serum albumin. Test compounds were diluted into the integrin solution and added to the washed ligand-coated plate according to a standard template with each sample repeated in triplicate. After incubation for 2 hr at room temperature, the plate was washed 3× with 150 μl of TBS+ buffer. To each well, biotinylated anti-A4 antibody (R & D Systems) at 1 μg/ml in TBS+/0.1% BSA was added and the plate covered and incubated for 1 hr at room temperature. After washing the plate 3× with TBS+ buffer, streptavidin-conjugated horseradish peroxidase (R & D Systems) diluted in TBS+ blocking buffer was added to the wells and the plate incubated for 20 min at room temperature. The plate was washed 3× with TBS+ buffer followed by addition of 50 μl of TMB substrate (Sigma T4444). After incubation for 20 min at room temperature, plates were stopped with TMB stop solution (Sigma S5689) by colorimetric detection at 450 nm wavelength using a Tecan Safire II plate reader.

[1] = test system: hematopoietic stem/progenitor cells (HSPCs); assay: HSPC mobilization into peripheral blood, colony forming unit (CFU) assay; for HSPC mobilization, result in words: test concentration or dose not given here; for No. CFU (×10^3)/mL ± SD, 6 hr: test concentration or dose not given here; conditions: mice; for No. CFU (x10^3)/mL ± SD, 2 hr: 2 hr post dose (TABLE 11); for No. CFU (x10^3)/mL ± SD, 4 hr: 4 hr post dose (TABLE 11); for No. CFU (x10^3)/mL ± SD, 6 hr: 6 hr post dose (TABLE 11); for No. CFU (x10^3)/mL ± SD, 24 hr: 24 hr post dose (TABLE 11); for No. CFU (×10^3)/mL ± SD, 1 hr: 1 hr post dose (TABLE 20); for No. CFU (×10^3)/mL ± SD, 8 hr: 8 hr post dose (TABLE 20)
VLA-4 (a4b1) = VLA-4 (a4b1) (Homo sapiens (Human), UniProt P05556+P13612); assay: sVCAM flow cytometry cell-based assay (inhibition of soluble VCAM-1 binding to G2 ALL cells);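 note: compounds at 0.1 to 1000 nM preincubated 30 min with G2 ALL cells, then VCAM/Fc added for 30 min, bound VCAM-1 detected by PE secondary antibody, percent binding cells by flow cytometry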
[2] = inhibition of sVCAM-1 binding to human G2 ALL cells (TABLE 3), read-out: SVCAM-1, IC50
[3] = single dose, peripheral blood, 2 hr post dose (TABLE 9)
[4] = single dose, peripheral blood, 4 hr post dose (TABLE 9)
[5] = single dose, peripheral blood, 6 hr post dose (TABLE 9)
[6] = as listed in TABLE 9, read-out: sVCAM IC50
[7] = as listed in TABLE 11, read-out: sVCAM IC50
[8] = single dose, peripheral blood, 4 hr post dose (TABLE 20)
[9] = as listed in TABLE 20, read-out: sVCAM IC50

Chain of VLA-4 (a4b1) (P13612 34-1032): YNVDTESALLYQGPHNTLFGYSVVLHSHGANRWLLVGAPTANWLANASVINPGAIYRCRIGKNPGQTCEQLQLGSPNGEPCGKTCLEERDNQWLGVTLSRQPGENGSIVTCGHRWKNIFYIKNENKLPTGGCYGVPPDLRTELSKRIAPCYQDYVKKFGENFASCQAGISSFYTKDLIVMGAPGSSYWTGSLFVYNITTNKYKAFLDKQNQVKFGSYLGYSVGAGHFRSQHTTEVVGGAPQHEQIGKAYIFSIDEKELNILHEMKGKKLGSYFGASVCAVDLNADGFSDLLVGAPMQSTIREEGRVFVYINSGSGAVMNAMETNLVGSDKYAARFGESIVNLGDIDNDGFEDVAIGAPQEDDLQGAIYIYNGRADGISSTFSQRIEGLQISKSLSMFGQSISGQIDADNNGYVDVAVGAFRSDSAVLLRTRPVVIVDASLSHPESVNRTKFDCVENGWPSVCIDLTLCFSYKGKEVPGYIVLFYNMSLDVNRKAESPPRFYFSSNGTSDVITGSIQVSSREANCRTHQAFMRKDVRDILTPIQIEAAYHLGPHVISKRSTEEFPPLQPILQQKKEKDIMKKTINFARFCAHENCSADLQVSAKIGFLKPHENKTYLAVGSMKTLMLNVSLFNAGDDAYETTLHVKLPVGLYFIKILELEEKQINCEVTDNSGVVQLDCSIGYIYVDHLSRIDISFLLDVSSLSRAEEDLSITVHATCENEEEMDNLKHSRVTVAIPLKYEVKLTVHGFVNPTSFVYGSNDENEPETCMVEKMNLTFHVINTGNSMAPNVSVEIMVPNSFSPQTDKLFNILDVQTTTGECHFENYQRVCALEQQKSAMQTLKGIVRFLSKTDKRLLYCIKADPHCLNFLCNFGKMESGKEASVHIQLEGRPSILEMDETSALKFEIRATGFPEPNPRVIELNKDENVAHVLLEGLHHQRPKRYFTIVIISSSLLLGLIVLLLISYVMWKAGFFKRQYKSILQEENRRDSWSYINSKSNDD
Chain of VLA-4 (a4b1) (P05556 21-798): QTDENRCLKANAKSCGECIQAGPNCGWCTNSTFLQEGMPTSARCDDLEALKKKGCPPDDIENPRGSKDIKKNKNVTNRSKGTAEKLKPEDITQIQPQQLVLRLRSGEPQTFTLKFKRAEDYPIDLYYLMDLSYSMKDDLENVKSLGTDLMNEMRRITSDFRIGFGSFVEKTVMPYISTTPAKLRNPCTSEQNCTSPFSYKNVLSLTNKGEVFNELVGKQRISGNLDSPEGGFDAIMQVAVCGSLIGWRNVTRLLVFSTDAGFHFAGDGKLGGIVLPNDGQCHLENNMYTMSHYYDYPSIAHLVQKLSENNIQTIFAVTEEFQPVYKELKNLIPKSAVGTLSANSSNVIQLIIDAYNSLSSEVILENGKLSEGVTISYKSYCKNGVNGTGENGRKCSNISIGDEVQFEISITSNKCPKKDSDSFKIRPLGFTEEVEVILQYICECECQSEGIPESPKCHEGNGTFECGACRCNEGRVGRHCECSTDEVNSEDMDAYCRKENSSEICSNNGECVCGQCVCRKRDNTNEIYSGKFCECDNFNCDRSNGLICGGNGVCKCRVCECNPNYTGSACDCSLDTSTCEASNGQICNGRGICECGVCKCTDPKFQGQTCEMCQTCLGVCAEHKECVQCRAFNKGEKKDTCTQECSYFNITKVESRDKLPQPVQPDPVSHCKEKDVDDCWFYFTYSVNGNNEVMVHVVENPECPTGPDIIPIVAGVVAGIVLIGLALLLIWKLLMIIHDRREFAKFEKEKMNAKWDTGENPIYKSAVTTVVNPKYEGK
Chain of integrin a4b7 (P13612 34-970): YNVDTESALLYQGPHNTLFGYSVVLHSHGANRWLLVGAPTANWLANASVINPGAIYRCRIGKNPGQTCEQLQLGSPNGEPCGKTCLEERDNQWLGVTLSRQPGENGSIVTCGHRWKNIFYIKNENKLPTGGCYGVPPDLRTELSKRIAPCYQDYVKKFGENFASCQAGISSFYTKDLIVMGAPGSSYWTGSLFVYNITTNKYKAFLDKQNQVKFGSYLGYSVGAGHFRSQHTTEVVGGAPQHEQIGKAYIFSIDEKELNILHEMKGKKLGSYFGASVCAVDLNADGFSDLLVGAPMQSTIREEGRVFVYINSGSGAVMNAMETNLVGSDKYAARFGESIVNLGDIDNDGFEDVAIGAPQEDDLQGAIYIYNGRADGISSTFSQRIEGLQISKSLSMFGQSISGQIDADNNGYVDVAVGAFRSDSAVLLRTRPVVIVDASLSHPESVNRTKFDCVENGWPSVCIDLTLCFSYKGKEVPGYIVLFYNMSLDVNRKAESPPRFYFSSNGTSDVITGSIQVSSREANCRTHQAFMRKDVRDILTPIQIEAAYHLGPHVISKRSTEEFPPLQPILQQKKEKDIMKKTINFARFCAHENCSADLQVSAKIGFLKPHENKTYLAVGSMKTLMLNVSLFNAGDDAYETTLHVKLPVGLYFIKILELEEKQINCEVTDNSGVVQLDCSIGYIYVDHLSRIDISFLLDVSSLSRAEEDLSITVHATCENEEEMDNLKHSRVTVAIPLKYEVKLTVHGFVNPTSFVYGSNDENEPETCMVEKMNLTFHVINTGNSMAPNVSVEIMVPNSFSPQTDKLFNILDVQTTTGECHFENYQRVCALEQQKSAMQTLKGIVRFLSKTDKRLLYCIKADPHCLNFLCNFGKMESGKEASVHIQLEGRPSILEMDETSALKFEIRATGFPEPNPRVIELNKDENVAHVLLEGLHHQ
Chain of integrin a4b7 (P26010 20-723): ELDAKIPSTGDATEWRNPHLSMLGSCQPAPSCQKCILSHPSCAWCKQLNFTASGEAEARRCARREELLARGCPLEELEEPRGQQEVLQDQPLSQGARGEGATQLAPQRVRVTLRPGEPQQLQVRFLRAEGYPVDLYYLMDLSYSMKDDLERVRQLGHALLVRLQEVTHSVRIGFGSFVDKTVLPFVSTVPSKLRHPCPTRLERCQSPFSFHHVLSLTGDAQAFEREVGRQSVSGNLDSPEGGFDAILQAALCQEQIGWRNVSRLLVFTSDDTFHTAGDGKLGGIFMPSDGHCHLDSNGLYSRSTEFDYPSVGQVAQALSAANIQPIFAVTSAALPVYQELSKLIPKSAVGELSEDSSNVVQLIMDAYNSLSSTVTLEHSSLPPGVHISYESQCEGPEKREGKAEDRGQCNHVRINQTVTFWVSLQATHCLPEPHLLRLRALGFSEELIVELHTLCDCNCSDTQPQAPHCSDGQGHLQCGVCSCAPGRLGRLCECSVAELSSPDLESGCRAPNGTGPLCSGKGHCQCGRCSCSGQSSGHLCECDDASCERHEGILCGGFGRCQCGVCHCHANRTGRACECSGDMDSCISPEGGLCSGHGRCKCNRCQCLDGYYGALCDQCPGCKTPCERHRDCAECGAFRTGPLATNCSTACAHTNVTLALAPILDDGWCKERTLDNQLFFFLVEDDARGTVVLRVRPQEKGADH

SMILES: Cc1ccccc1NC(=O)Nc1ccc(CC(=O)N(C)[C@@H](CC(C)C)C(=O)NCC[C@H](NC(=O)[C@@H]2CCCN2S(=O)(=O)c2cc(Cl)cc(Cl)c2)C(=O)O)cc1 [BIO5192]
pIC50 (integrin a4b7): < 5.00

SMILES: COCCOCCOCCOCCOCCOCCOCCOCCOCCOCCOCCOCCOCCOCCOCCOCCOCCOCCOCCOCCOCCOCCOCCOCCOCCOCCOCCOCCOCCOCCOCCOCCOCCOCCOCCOCCn1cc(COCc2cc(OC)c(-c3ccc(C[C@H](NC(=O)[C@@H]4CCCN4S(=O)(=O)c4cc(Cl)cc(Cl)c4)C(=O)O)cc3)c(OC)c2)nn1 [Example C10, (S)-3-(4′-(((1-(2,5,8,11,14,17,20,23,26,29,32,35,38,41,44,47,50,53,56,59,62,65,68,71,74,77,80,83, 86,89,92,95,98,101,104,107-hexatriacontaoxanonahectan-109-yl)-1H-1,2,3-triazol-4-yl)methoxy)methyl)-2′,6′-dimethoxy-[1,1′-biphenyl]-4-yl)-2-((S)-1-((3,5-dichlorophenyl)sulfonyl)pyrrolidine-2-carboxamido)propanoic Acid]
HSPC mobilization, result in words ([1]; single dose): returning to baseline by 4 hours; also recorded: inferior mobilization at 4 hours compared to Example 3
No. CFU (×10^3)/mL ± SD, 0.25 hr ([1]; single dose, peripheral blood, 0.25 hr post dose (TABLE 8)): 3.87 ± 1.33 (×10^3)/mL
No. CFU (×10^3)/mL ± SD, 2 hr ([1]; single dose, peripheral blood, 2 hr post dose (TABLE 8)): 3.37 ± 1.12 (×10^3)/mL
No. CFU (×10^3)/mL ± SD, 4 hr ([1]; single dose, peripheral blood, 4 hr post dose (TABLE 8)): 0.90 ± 0.52 (×10^3)/mL
pIC50 (VLA-4 (a4b1); as listed in TABLE 8, read-out: sVCAM IC50): 9.26
pIC50 (VLA-4 (a4b1); [2]): 9.26

SMILES: COCCOCCOCCOCCOCCOCCOCCOCCOCc1cc(OC)c(-c2ccc(C[C@H](NC(=O)[C@@H]3CCCN3S(=O)(=O)c3cc(Cl)cc(Cl)c3)C(=O)O)cc2)c(OC)c1 [Example C12, (2S)-2-[[(2S)-1-(3,5-dichlorophenyl)sulfonylpyrrolidine-2-carbonyl]amino]-3-[4-[2,6-dimethoxy-4-[2-[2-[2-[2-[2-[2-[2-(2-methoxyethoxy)ethoxy]ethoxy]ethoxy]ethoxy]ethoxy]ethoxy]ethoxymethyl]phenyl]phenyl]propanoic Acid]
time to which HSPC mobilization is extended after a single dose [1]: ≤ 2 h
No. CFU (×10^3)/mL ± SD, 2 hr ([1]; alone or in combination with Plerixafor and tGroβ, peripheral blood, 2 hr (TABLE 17)): 4.02 ± 1.99 (×10^3)/mL
No. CFU (×10^3)/mL ± SD, 4 hr ([1]; alone or in combination with Plerixafor and tGroβ, peripheral blood, 4 hr (TABLE 17)): 0.90 ± 0.61 (×10^3)/mL
No. CFU (×10^3)/mL ± SD, 6 hr ([1]; alone or in combination with Plerixafor and tGroβ, peripheral blood, 6 hr (TABLE 17)): 0.25 ± 0.08 (×10^3)/mL
HSPC mobilization, result in words ([1]; single dose): returning to baseline by 4 hours and clearly at baseline by 6 hours; also recorded: do not provide the same extended mobilization as the 24 PEG unit analogues
No. CFU (×10^3)/mL ± SD, 2 hr [1, 3]: 2.42 ± 1.06 (×10^3)/mL
No. CFU (x10^3)/mL ± SD, 2 hr ([1]; single dose, peripheral blood): 0.78 ± 0.17 (x10^3)/mL
No. CFU (×10^3)/mL ± SD, 4 hr [1, 4]: 1.19 ± 0.53 (×10^3)/mL
No. CFU (x10^3)/mL ± SD, 4 hr ([1]; single dose, peripheral blood): 0.58 ± 0.19 (x10^3)/mL
No. CFU (×10^3)/mL ± SD, 6 hr [1, 5]: 0.24 ± 0.15 (×10^3)/mL
No. CFU (x10^3)/mL ± SD, 6 hr ([1]; single dose, peripheral blood): 0.22 ± 0.10 (x10^3)/mL
No. CFU (x10^3)/mL ± SD, 24 hr ([1]; single dose, peripheral blood): 0.14 ± 0.07 (x10^3)/mL
pIC50 (VLA-4 (a4b1); [6]): 9.24
pIC50 (VLA-4 (a4b1); [7]): 9.24
pIC50 (VLA-4 (a4b1); as listed in TABLE 17, read-out: sVCAM IC50): 9.24
pIC50 (VLA-4 (a4b1); [2]): 9.24

SMILES: COCCOCCOCCOCCOCCOCCOCCOCCOCCOCCOCCOCCOCc1cc(OC)c(-c2ccc(C[C@H](NC(=O)[C@@H]3CCCN3S(=O)(=O)c3cc(Cl)cc(Cl)c3)C(=O)O)cc2)c(OC)c1 [Example C13, (S)-2-((S)-1-((3,5-dichlorophenyl)sulfonyl)pyrrolidine-2-carboxamido)-3-(2′,6′-dimethoxy-4′-(2,5,8,11,14,17,20,23,26,29,32,35,38-tridecaoxanonatriacontyl)-[1,1′-biphenyl]-4-yl)propanoic Acid]
HSPC mobilization, result in words ([1]; single dose): returning to baseline by 4 hours and clearly at baseline by 6 hours
No. CFU (×10^3)/mL ± SD, 2 hr [1, 3]: 2.01 ± 0.75 (×10^3)/mL
No. CFU (×10^3)/mL ± SD, 4 hr [1, 4]: 0.41 ± 0.19 (×10^3)/mL
No. CFU (×10^3)/mL ± SD, 6 hr [1, 5]: 0.10 ± 0.04 (×10^3)/mL
pIC50 (VLA-4 (a4b1); [6]): 9.17
pIC50 (VLA-4 (a4b1); [2]): 9.17

Now from value to molecule, other results behind:

pIC50 (VLA-4 (a4b1); [6]): 9.15
pIC50 (VLA-4 (a4b1); as listed in TABLE 10, read-out: sVCAM IC50): 9.15
pIC50 (VLA-4 (a4b1); [2]): 9.15
SMILES: COCCOCCOCCOCCOCCOCCOCCOCCOCCOCCOCCOCCOCCOCCOCCOCCOCc1cc(OC)c(-c2ccc(C[C@H](NC(=O)[C@@H]3CCCN3S(=O)(=O)c3cc(Cl)cc(Cl)c3)C(=O)O)cc2)c(OC)c1 [Example C14, (S)-3-(4′-(2,5,8,11,14,17,20,23,26,29,32,35,38,41,44,47,50-heptadecaoxahenpentacontyl)-2′,6′-dimethoxy-[1,1′-biphenyl]-4-yl)-2-((S)-1-((3,5-dichlorophenyl)sulfonyl)pyrrolidine-2-carboxamido)propanoic Acid]
HSPC mobilization, result in words ([1]; single dose): returning to baseline by 4 hours and clearly at baseline by 6 hours; also recorded: returning to baseline at 4 hours and affords no mobilization effects at 6 hours
No. CFU (×10^3)/mL ± SD, 2 hr [1, 3]: 3.17 ± 1.17 (×10^3)/mL
No. CFU (×10^3)/mL ± SD, 2 hr ([1]; single dose, peripheral blood, 2 hr post dose (TABLE 10)): 3.40 ± 1.42 (×10^3)/mL
No. CFU (×10^3)/mL ± SD, 4 hr [1, 4]: 0.50 ± 0.25 (×10^3)/mL
No. CFU (×10^3)/mL ± SD, 4 hr ([1]; single dose, peripheral blood, 4 hr post dose (TABLE 10)): 0.82 ± 0.47 (×10^3)/mL
No. CFU (×10^3)/mL ± SD, 6 hr [1, 5]: 0.08 ± 0.11 (×10^3)/mL
No. CFU (×10^3)/mL ± SD, 6 hr ([1]; single dose, peripheral blood, 6 hr post dose (TABLE 10)): 0.25 ± 0.16 (×10^3)/mL

pIC50 (VLA-4 (a4b1); [7]): 9.81
pIC50 (VLA-4 (a4b1); [2]): 9.81
SMILES: COCCOCCOCCOCCOCCOCCOCCOCCSCc1cc(OC)c(-c2ccc(C[C@H](NC(=O)[C@@H]3CCCN3S(=O)(=O)c3cc(Cl)cc(Cl)c3)C(=O)O)cc2)c(OC)c1 [Example C16]
No. CFU (x10^3)/mL ± SD, 2 hr ([1]; single dose, peripheral blood): 2.34 ± 0.55 (x10^3)/mL
No. CFU (x10^3)/mL ± SD, 4 hr ([1]; single dose, peripheral blood): 1.14 ± 0.86 (x10^3)/mL
No. CFU (x10^3)/mL ± SD, 6 hr ([1]; single dose, peripheral blood): 0.38 ± 0.24 (x10^3)/mL
No. CFU (x10^3)/mL ± SD, 24 hr ([1]; single dose, peripheral blood): 0.14 ± 0.06 (x10^3)/mL

pIC50 (VLA-4 (a4b1); [9]): 7.01
pIC50 (VLA-4 (a4b1); [2]): 7.01
SMILES: Cc1cccc(Cl)c1C(=O)N[C@@H](Cc1ccc(NC(=O)c2c(Cl)cccc2Cl)cc1)C(=O)O [RO0270608]
HSPC mobilization, result in words ([1]; single dose): lack of any appreciable HSC mobilization
No. CFU (×10^3)/mL ± SD, 1 hr ([1]; single dose, peripheral blood): 0.64 ± 0.41 (×10^3)/mL
No. CFU (×10^3)/mL ± SD, 4 hr [1, 8]: 0.19 ± 0.06 (×10^3)/mL
No. CFU (×10^3)/mL ± SD, 8 hr ([1]; single dose, peripheral blood): 0.11 ± 0.05 (×10^3)/mL

pIC50 (VLA-4 (a4b1); [9]): 6.61
pIC50 (VLA-4 (a4b1); [2]): 6.61
SMILES: COc1cccc(OC)c1-c1ccc(C[C@H](NC(=O)c2c(Cl)cccc2Cl)C(=O)O)cc1 [TR-14035]
No. CFU (×10^3)/mL ± SD, 1 hr ([1]; single dose, peripheral blood): 0.54 ± 0.15 (×10^3)/mL
No. CFU (×10^3)/mL ± SD, 4 hr [1, 8]: 0.18 ± 0.13 (×10^3)/mL
No. CFU (×10^3)/mL ± SD, 8 hr ([1]; single dose, peripheral blood): 0.10 ± 0.05 (×10^3)/mL
